In patent US7115662B2, “Certain 5-alkyl-2-arylaminophenylacetic acids and derivatives” (Novartis AG, priority 1997, dated 2006):

Legend:
[1] = molecular target: T1, cyclooxygenase-1 (COX-1) (Homo sapiens, UniProt P23219); assay: cellular COX-1 inhibition assay (293 cells stably transfected with COX-1, PGE2 radioimmunoassay); format: cell-based; settings: 293 cells expressing COX-1; 30 μM compound
T1 construct: expressed in transfected cells; host or cells: human kidney epithelial cell line 293, stably transfected
Procedure: (§1) Cyclooxygenase inhibition is determined in vitro using cellular assays for inhibition of both cyclooxygenase-1 and cyclooxygenase-2.
(§2) The cellular assays for testing cyclooxygenase inhibitors are based on the fact that the cyclooxygenase enzyme (prostaglandin H synthase) catalyzes the rate limiting step in prostaglandin synthesis from arachidonic acid. Two enzymes mediate the reaction: COX-1 is a constitutive form of the enzyme whereas COX-2 is induced in response to various growth factors and cytokines. Cell lines have been established which express one form of the enzyme: a human skin fibroblast line which can be induced with IL-1 to synthesize COX-2, and the kidney epithelial cell line 293 which has been stably transfected to constitutively express COX-1. Both isoforms metabolize arachidonic acid into the stable metabolite prostaglandin E2. Arachidonic acid can be added exogenously to increase output to easily measurable levels. The levels of prostaglandin E2 in the extracellular medium are assayed by radioimmunoassay as a measure of enzyme activity. The relative activities of each isoform are compared to assess compound selectivity.
(§3) In vitro cyclooxygenase-1 (COX-1) and cyclooxygenase-2 (COX-2) inhibition is determined in the cell-based assays in order to assess the in vitro activity and selectivity for COX-2 inhibition, using a prostaglandin E2 radioimmunoassay. The cells utilized are primary human fibroblasts induced with interleukin-1 to produce COX-2, and the human kidney epithelial cell line 293 stably transfected to produce COX-1 constitutively. Cells are plated out into well plates in which the assay is performed. Fibroblasts are stimulated to synthesize COX-2 by treatment overnight with IL-1; the 293 cells require no induction. Both cell lines are pre-treated with compound dilutions for 15 minutes at 37° C., then 40 μM arachidonic acid is added as exogenous substrate for the production of PGE2, which is measured in supernatant by radioimmunoassay. […]

[2] = tested on: gross gastric ulceration; assay: gastric tolerability assay; format: in vivo; settings: rat; 100 mg/kg p.o.; four hours after administration
Procedure: The gastric tolerability assay is used to assess gross ulceration in the rat, measured four hours after oral administration of the test compound. The test is carried out as follows: Rats are fasted overnight, administered compound in fortified cornstarch vehicle by gavage, and sacrificed by carbon dioxide inhalation four hours later. The stomachs are removed and gross gastric lesions counted and measured to give the total lesion length per rat. Each experiment contains the following groups (5–6 rats per group): vehicle control, test compounds, and diclofenac as a reference compound. Data are calculated as the mean number of ulcers in a group, the mean length of ulcers (mm) in the group and as the ulcer index (UI). UI=mean length of ulcers in a group×ulcer incidence where ulcer incidence is the fraction of animals in the group with lesions (100% incidence is 1).

[3] = tested on: intestinal permeability; assay: intestinal tolerability (51Cr-EDTA intestinal permeability); format: in vivo; settings: rat; 30 mg/kg p.o.; 51Cr-EDTA urinary excretion over 24 h
Procedure: Intestinal tolerability can be determined by measuring the effect on intestinal permeability. Lack of increase in permeability is indicative of intestinal tolerability. The method used is a modification of a procedure by Davies, et al., Pharm. Res. 1994; 11:1652–1656 and is based on the fact that excretion of orally administered ^51Cr-EDTA, a marker of small intestinal permeability, is increased by NSAIDs. Groups of rats (≧12/group) are administered a single, oral dose of test compound or vehicle by gastric intubation. Immediately following compound dose, each rat is administered ^51Cr-EDTA (5 μCi/rat) by gastric intubation. The rats are placed in individual metabolic cages and given food and water ad libitum. Urine is collected over a 24 hour period. Twenty-four hours after administration of ^51Cr-EDTA the rats are sacrificed. To quantify compound effect on intestinal permeability, the excreted ^51Cr-EDTA measured in the urine of compound treated rats is compared to the excreted ^51Cr-EDTA measured in the urine of vehicle treated rats. Relative permeability is determined by calculating the activity present in each urine sample as a percent of the administered dose after correcting for background radiation.

[4] = molecular target: T2, cyclooxygenase-2 (COX-2) (Homo sapiens, UniProt P35354); assay: cellular COX-2 inhibition assay (IL-1 induced human fibroblasts, PGE2 radioimmunoassay); format: cell-based; settings: primary human fibroblasts induced with IL-1, 40 μM arachidonic acid
T2 construct: endogenous in cells; host or cells: primary human skin fibroblasts induced with IL-1
T2 sequence (P35354 18-604): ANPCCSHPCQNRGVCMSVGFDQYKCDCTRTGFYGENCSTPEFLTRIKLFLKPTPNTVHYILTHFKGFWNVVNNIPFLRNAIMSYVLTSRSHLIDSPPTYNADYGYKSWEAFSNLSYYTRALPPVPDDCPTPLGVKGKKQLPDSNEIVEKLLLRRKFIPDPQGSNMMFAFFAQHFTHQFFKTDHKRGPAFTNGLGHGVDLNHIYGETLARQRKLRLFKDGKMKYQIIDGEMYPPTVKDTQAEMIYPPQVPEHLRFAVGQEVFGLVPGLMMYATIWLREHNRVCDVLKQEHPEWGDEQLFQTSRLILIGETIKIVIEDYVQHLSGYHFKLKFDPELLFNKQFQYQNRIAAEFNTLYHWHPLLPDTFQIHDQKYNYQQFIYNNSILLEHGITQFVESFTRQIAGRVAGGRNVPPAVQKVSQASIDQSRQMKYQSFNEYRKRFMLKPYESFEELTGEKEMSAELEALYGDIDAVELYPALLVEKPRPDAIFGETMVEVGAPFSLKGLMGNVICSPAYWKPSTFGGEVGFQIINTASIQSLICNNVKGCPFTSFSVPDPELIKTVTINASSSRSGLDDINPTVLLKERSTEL
Procedure: as §1, §2, §3

[5] = tested on: pain threshold in yeast-inflamed paw; assay: Randall-Selitto paw pressure assay; format: in vivo, rat; settings: male Wistar rats; 10 mg/kg orally; 1 h after dosing
Procedure: The analgesic activity of the compounds of the invention is determined using the well-known Randall-Selitto assay.
The Randall-Selitto paw pressure assay measures antinociception (analgesic activity) in inflamed tissue by comparing the pressure threshold in the inflamed paw of the rat after oral administration of test drug with that in the inflamed paw of rats administered corn starch vehicle orally.
Groups of 10 male Wistar rats weighing 40–50 gms are fasted overnight prior to testing. Hyperalgesia is induced by the injection of 0.1 ml of a 20% suspension of Brewer's yeast with a 26 gauge needle into the subplantar region of the right hindpaw. The left paw is not injected and is used as the control paw for determination of hyperalgesia. Vehicle (Fortified corn starch suspension 3%) at 10 ml/kg, reference compound (diclofenac is run in every experiment at the same dose as test compounds) and test compounds at different doses suspended in vehicle at 10 ml/kg are administered orally 2 hours after the yeast injection. The threshold for paw withdrawal is quantified with a Basile Analgesy-meter 1 hour after oral administration of test compounds. The nociceptive threshold is defined as the force in grams at which the rat withdraws its foot or vocalizes. Either vocalization or foot withdrawal is recorded as a response.
The data are analyzed by comparing the mean pain threshold of the corn starch vehicle-treated group for the inflamed and non-inflamed paws to that of individual drug-treated rats. Individual rats in the drug-treated groups and positive control (diclofenac) group are called reactors if the individual pain threshold in each paw exceeds the control group mean threshold by two standard deviations of that mean. The mean pain thresholds of the inflamed paw in the control group are compared to the individual pain thresholds of the inflamed paw in the test drug group. The non-inflamed control mean pressure threshold is compared to the non-inflamed individual pressure thresholds in the test groups. Results are expressed as number of reactors in each test group (n=10) for inflamed and non-inflamed paws. Percentages are calculated by dividing number of reactors by total number of rats used for a compound.

T1 sequence (P23219 24-599, species assumed): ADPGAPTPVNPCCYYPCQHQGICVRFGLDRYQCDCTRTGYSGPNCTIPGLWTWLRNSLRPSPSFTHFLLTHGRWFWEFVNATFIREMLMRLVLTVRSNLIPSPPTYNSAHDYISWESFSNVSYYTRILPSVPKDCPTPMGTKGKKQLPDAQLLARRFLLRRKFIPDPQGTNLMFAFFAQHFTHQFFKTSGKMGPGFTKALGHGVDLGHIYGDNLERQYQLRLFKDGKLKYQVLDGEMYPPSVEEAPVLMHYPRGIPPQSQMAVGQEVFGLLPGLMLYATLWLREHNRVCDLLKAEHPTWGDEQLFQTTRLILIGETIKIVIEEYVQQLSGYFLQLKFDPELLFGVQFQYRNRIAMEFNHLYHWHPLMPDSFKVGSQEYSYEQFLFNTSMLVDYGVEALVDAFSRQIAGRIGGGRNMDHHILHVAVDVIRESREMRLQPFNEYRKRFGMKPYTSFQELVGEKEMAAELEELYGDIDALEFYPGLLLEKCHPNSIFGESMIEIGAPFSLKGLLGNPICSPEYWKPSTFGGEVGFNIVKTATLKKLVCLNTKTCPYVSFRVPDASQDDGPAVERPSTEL

COX-1 inhibition at 30 μM [1] | IC50 [4] | melting point | SMILES | gastric ulcerogenic effect [2] | effect on intestinal permeability [3] | pain threshold in the inflamed paw [5] | pain threshold in the non-inflamed paw [5]
no significant COX-1 inhibition | ~250 nM | 157 to 159 °C | Cc1ccc(Nc2c(F)cc(F)cc2Cl)c(CC(=O)O)c1 [Example 1(g), 5-methyl-2-(2′,4′-difluoro-6′-chloroanilino)phenylacetic acid] | essentially free of any gastric ulcerogenic effect | no effect or only a minimal effect | increase the pain threshold | no threshold elevation
no significant COX-1 inhibition | ~130 nM | – | Cc1ccc(Nc2c(F)cccc2Cl)c(CC(=O)O)c1 [1(d), 5-methyl-2-(2′-chloro-6′-fluoroanilino)phenylacetic acid] | essentially free of any gastric ulcerogenic effect | no effect or only a minimal effect | increase the pain threshold | no threshold elevation
no significant COX-1 inhibition | ~7 nM | – | CCc1ccc(Nc2c(F)c(F)cc(F)c2F)c(CC(=O)O)c1 [3(a), 5-ethyl-2-(2′, 3′,5′,6′-tetrafluoroanilino)phenylacetic acid] | essentially free of any gastric ulcerogenic effect | no effect or only a minimal effect | increase the pain threshold | no threshold elevation
